Reference: patent US20220177834A1, “STABLE SYSTEM FOR THE IN VITRO CULTURE OF CEREBELLAR GRANULE CELL PRECURSORS (GCP), STABLE METHOD FOR THE IN VITRO CULTURE OF SAID CELLS AND USE OF SAID SYSTEM OR METHOD FOR IN VITRO CULTURE” (UNIVERSITA DEGLI STUDI Dl ROMA "LA SAPIENZA", priority 2019, published 2022)
Entries after “also recorded” stand apart in the source; their conditions may differ.

Tests used:
[1] = tested on: GCP cells; assay: Clonogenicity / long-term propagation of GCP neurosphere cultures; format: cell-based, mouse
Experimental: (§1) After surgical resection from a mouse on the seventh day of postnatal life (P7) the cerebellum was mechanically shredded in a buffer containing HBSS, glucose and antibiotics, and DNase (at concentrations as defined above) and the individual cells thus obtained were counted and plated at a dilution of 16000 cells/cm^2 on a medium composed of DMEM-F12, glucose, Vitamin A-free B27, insulin, NALC, heparin, antibiotics (at concentrations as defined above) and SAG (200 nM) and EGF ([…]). On this medium the cells can be enriched and maintained for an unlimited time, after periodical dissociation of the spheres with Accutase® (2-3 times per week) and propagation by dilution (to prevent excessive growth and consequent death from nutrient deficiency and hypoxia). The reaction conditions were as described above.

[2] = tested on: Shh pathway; assay: Shh pathway expression (Gli1, N-Myc; Western Blot, real time Q-PCR) in GCP neurosphere cultures; format: cell-based, mouse; details: Western Blot, neurospheres under different culture conditions; SAG 200 nM, EGF 1 μM
Experimental: as §1

CNC1CCC(N(Cc2cccc(-c3ccncc3)c2)C(=O)c2sc3ccccc3c2Cl)CC1 (stereo not drawn) [SAG]
long-term survival of the culture ([1]; factor alone): does not ensure long-term survival of the culture
clonogenic power (average spheres) over time ([1]; several weeks after being grown): undergoes progressive decline
expression of molecular biomarkers of the Shh pathway, Gli1 and N-Myc [2]: active; also recorded: maintains a high expression of the Shh pathway
